Results: the supplement of paper PMC10307832

Columns and labels:
Assay in all cases: relative viability (nuclei count vs DMSO), 5 days (fraction); higher = more cells survive
NCI-H1563 = test system: NCI-H1563
In short: (§1)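 Cells from lung cancer lines were seeded into 1536-well plates and, one day later, dosed by pin tool. Treatments were either a single drug or a fixed dose of an anchor drug with five library-drug doses (not always all listed) in √10 steps. After 5 days, nuclei were stained in a one-step fixation (final 0.05% Triton X-100, 1% formaldehyde, 1 ug/ml Hoechst) and counted on 4× images, and relative viability is the treated-to-vehicle nuclei ratio, as the median of duplicate plates.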

201T = test system: 201T
In short: as §1

SW 1573 = test system: SW 1573
In short: as §1

NCI-H727 = test system: NCI-H727
In short: as §1

NCI-H1650 = test system: NCI-H1650
In short: as §1

H3255 = test system: H3255
In short: as §1

NCI-H1793 = test system: NCI-H1793
In short: as §1

LK-2 = test system: LK-2
In short: as §1

NCI-H2228 = test system: NCI-H2228
In short: as §1

HCC-44 = test system: HCC-44
In short: as §1

LC-2-ad = test system: LC-2-ad
In short: as §1

NCI-H23 = test system: NCI-H23
In short: as §1

NCI-H596 = test system: NCI-H596
In short: as §1

PC-14 = test system: PC-14
In short: as §1

COR-L23 = test system: COR-L23
In short: as §1

A-427 = test system: A-427
In short: as §1

LU99A = test system: LU99A
In short: as §1

NCI-H460 = test system: NCI-H460
In short: as §1

NCI-H2347 = test system: NCI-H2347
In short: as §1

LCLC-97TM1 = test system: LCLC-97TM1
In short: as §1

## COc1cc2nccc(Oc3ccc(NC(=O)Nc4cc(C)on4)c(Cl)c3)c2cc1OC [Tivozanib] + CS(=O)(=O)CCNCc1ccc(-c2ccc3ncnc(Nc4ccc(OCc5cccc(F)c5)c(Cl)c4)c3c2)o1 [Lapatinib] (partner 2 µM)
NCI-H1563; first compound 0.005 µM
  relative viability: 0.848
NCI-H1563; first compound 0.01581 µM
  relative viability: 0.985
NCI-H1563; first compound 0.05 µM
  relative viability: 0.938
NCI-H1563; first compound 0.1581 µM
  relative viability: 0.856
NCI-H1563; first compound 0.5 µM
  relative viability: 0.796
201T; first compound 0.005 µM
  relative viability: 1.04
201T; first compound 0.01581 µM
  relative viability: 1.06
201T; first compound 0.05 µM
  relative viability: 1.01
201T; first compound 0.1581 µM
  relative viability: 0.988
201T; first compound 0.5 µM
  relative viability: 1.07
SW 1573; first compound 0.005 µM
  relative viability: 0.909
SW 1573; first compound 0.01581 µM
  relative viability: 1.25
SW 1573; first compound 0.05 µM
  relative viability: 1.16
SW 1573; first compound 0.1581 µM
  relative viability: 0.856
SW 1573; first compound 0.5 µM
  relative viability: 1.08
NCI-H727; first compound 0.005 µM
  relative viability: 0.676
NCI-H727; first compound 0.01581 µM
  relative viability: 0.901
NCI-H727; first compound 0.05 µM
  relative viability: 0.957
NCI-H727; first compound 0.5 µM
  relative viability: 0.787
NCI-H1650; first compound 0.005 µM
  relative viability: 0.707
NCI-H1650; first compound 0.01581 µM
  relative viability: 0.845
NCI-H1650; first compound 0.05 µM
  relative viability: 0.836
NCI-H1650; first compound 0.1581 µM
  relative viability: 0.717
NCI-H1650; first compound 0.5 µM
  relative viability: 0.721
H3255; first compound 0.005 µM
  relative viability: 0.247
H3255; first compound 0.01581 µM
  relative viability: 0.223
H3255; first compound 0.05 µM
  relative viability: 0.23
H3255; first compound 0.1581 µM
  relative viability: 0.232
H3255; first compound 0.5 µM
  relative viability: 0.211
NCI-H1793; first compound 0.005 µM
  relative viability: 0.619
NCI-H1793; first compound 0.01581 µM
  relative viability: 0.478
NCI-H1793; first compound 0.05 µM
  relative viability: 0.696
NCI-H1793; first compound 0.5 µM
  relative viability: 0.867
LK-2; first compound 0.005 µM
  relative viability: 0.951
LK-2; first compound 0.01581 µM
  relative viability: 0.842
LK-2; first compound 0.05 µM
  relative viability: 0.918
LK-2; first compound 0.1581 µM
  relative viability: 0.742
LK-2; first compound 0.5 µM
  relative viability: 0.683
NCI-H2228; first compound 0.005 µM
  relative viability: 1.07
NCI-H2228; first compound 0.01581 µM
  relative viability: 1.1
NCI-H2228; first compound 0.05 µM
  relative viability: 1.07
NCI-H2228; first compound 0.1581 µM
  relative viability: 1.03
NCI-H2228; first compound 0.5 µM
  relative viability: 0.948
HCC-44; first compound 0.005 µM
  relative viability: 0.95
HCC-44; first compound 0.01581 µM
  relative viability: 0.991
HCC-44; first compound 0.05 µM
  relative viability: 1.01
HCC-44; first compound 0.1581 µM
  relative viability: 0.991
HCC-44; first compound 0.5 µM
  relative viability: 0.952
LC-2-ad; first compound 0.005 µM
  relative viability: 0.959
LC-2-ad; first compound 0.01581 µM
  relative viability: 0.944
LC-2-ad; first compound 0.05 µM
  relative viability: 0.856
LC-2-ad; first compound 0.1581 µM
  relative viability: 0.542
LC-2-ad; first compound 0.5 µM
  relative viability: 0.466
NCI-H23; first compound 0.005 µM
  relative viability: 1.1
NCI-H23; first compound 0.01581 µM
  relative viability: 1.37
NCI-H23; first compound 0.05 µM
  relative viability: 1.09
NCI-H23; first compound 0.1581 µM
  relative viability: 0.858
NCI-H23; first compound 0.5 µM
  relative viability: 0.942
NCI-H596; first compound 0.005 µM
  relative viability: 0.998
NCI-H596; first compound 0.01581 µM
  relative viability: 1.04
NCI-H596; first compound 0.05 µM
  relative viability: 1.04
NCI-H596; first compound 0.1581 µM
  relative viability: 1.04
NCI-H596; first compound 0.5 µM
  relative viability: 1.08
PC-14; first compound 0.005 µM
  relative viability: 0.245
PC-14; first compound 0.01581 µM
  relative viability: 0.325
PC-14; first compound 0.05 µM
  relative viability: 0.308
PC-14; first compound 0.1581 µM
  relative viability: 0.255
PC-14; first compound 0.5 µM
  relative viability: 0.332
COR-L23; first compound 0.005 µM
  relative viability: 0.902
COR-L23; first compound 0.01581 µM
  relative viability: 0.99
COR-L23; first compound 0.05 µM
  relative viability: 0.991
COR-L23; first compound 0.1581 µM
  relative viability: 0.928
COR-L23; first compound 0.5 µM
  relative viability: 0.67
A-427; first compound 0.005 µM
  relative viability: 1.02
A-427; first compound 0.01581 µM
  relative viability: 1.04
A-427; first compound 0.05 µM
  relative viability: 1.04
A-427; first compound 0.1581 µM
  relative viability: 0.96
A-427; first compound 0.5 µM
  relative viability: 1.06
LU99A; first compound 0.005 µM
  relative viability: 0.914
LU99A; first compound 0.01581 µM
  relative viability: 0.924
LU99A; first compound 0.05 µM
  relative viability: 0.967
LU99A; first compound 0.5 µM
  relative viability: 0.919
NCI-H460; first compound 0.005 µM
  relative viability: 0.889
NCI-H460; first compound 0.01581 µM
  relative viability: 1
NCI-H460; first compound 0.05 µM
  relative viability: 0.979
NCI-H460; first compound 0.1581 µM
  relative viability: 1.12
NCI-H460; first compound 0.5 µM
  relative viability: 0.948
NCI-H2347; first compound 0.005 µM
  relative viability: 0.881
NCI-H2347; first compound 0.01581 µM
  relative viability: 0.93
NCI-H2347; first compound 0.05 µM
  relative viability: 0.963
NCI-H2347; first compound 0.1581 µM
  relative viability: 1.11
NCI-H2347; first compound 0.5 µM
  relative viability: 0.907
LCLC-97TM1; first compound 0.005 µM
  relative viability: 0.948
LCLC-97TM1; first compound 0.01581 µM
  relative viability: 1.23
LCLC-97TM1; first compound 0.1581 µM
  relative viability: 0.807
LCLC-97TM1; first compound 0.5 µM
  relative viability: 0.821
